# Reference: ChEMBL document CHEMBL1136445, “Inhibitory effects on mitochondrial complex I of semisynthetic mono-tetrahydrofuran acetogenin derivatives” (Bioorg Med Chem Lett, 2003)
# Legend:
# [1] = Inhibitory activity against NADH/DH oxidoreductase in beef heart mitochondrial complex I.; parameters: species or system Bos taurus
# [2] = molecular target: Mitochondrial complex I; NADH oxidoreductase (Bos taurus) (UniProt P25708+P52505); assay: Inhibitory potency against NADH oxidase with respect to compound 2c; type: protein-complex assay
# [3] = molecular target: Mitochondrial complex I; NADH oxidoreductase (Bos taurus, UniProt P25708+P52505); assay: Inhibitory activity against NADH oxidase in beef heart mitochondrial complex I.; type: protein-complex assay
# Bos taurus = organism: Bos taurus; assay: Inhibitory potency against NADH/DH oxidoreductase with respect to rotenone
# Sequence of Mitochondrial complex I; NADH oxidoreductase (P25708 21-464 limits assumed, other chains not shown): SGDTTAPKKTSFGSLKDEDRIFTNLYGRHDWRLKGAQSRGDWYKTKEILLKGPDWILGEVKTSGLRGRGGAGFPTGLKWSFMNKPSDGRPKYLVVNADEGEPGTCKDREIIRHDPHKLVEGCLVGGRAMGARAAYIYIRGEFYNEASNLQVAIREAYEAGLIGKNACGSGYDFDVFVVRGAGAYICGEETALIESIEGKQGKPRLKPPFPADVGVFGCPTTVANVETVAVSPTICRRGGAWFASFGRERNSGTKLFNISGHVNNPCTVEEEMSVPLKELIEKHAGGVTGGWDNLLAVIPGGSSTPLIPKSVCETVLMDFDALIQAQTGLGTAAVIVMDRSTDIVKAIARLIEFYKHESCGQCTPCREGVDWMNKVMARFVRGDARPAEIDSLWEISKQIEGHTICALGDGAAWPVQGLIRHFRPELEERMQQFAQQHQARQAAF
SMILES,IC50 [1],Relative potency [2],IC50 [3],Relative potency (Bos taurus)
CCCCCCCCCCCC[C@H](O)[C@@H]1CC[C@@H]([C@@H](O)CCCCC(=O)CCCCC[C@@H](O)CC2=C[C@H](C)OC2=O)O1,3.7 nM,1.1,0.8 nM,0.15
CCCCCCCCCCCC[C@H](O)[C@@H]1CC[C@@H]([C@@H](O)CCCC[C@@H](O)CCCCC[C@@H](O)CC2C[C@H](C)OC2=O)O1 (some centres not stated),19.9 nM,5.1,3.6 nM,0.7
CCCCCCCCCCCC[C@H](O)[C@@H]1CC[C@@H]([C@@H](O)CCCC[C@@H](O)CCCCC[C@@H](O)CC2(O)C(=O)O[C@@H](C)C2O)O1 (some centres not stated),55.2 nM,31.1,21.8 nM,4.27
CCCCCCCCCCCC[C@H](O)[C@@H]1CC[C@@H]([C@@H](O)CCCC/C(CCCCC[C@@H](O)CC2=C[C@H](C)OC2=O)=N\O)O1,10.3 nM,3.8,2.7 nM,0.52
CCCCCCCCCCCC[C@H](O)[C@@H]1CC[C@@H]([C@@H](O)CCCCC(CCCCC[C@@H](O)CC2=C[C@H](C)OC2=O)NCCc2ccc(OC)c(OCc3ccccc3)c2)O1 (some centres not stated),> 1200 nM,,> 150 nM,
C=C(C)[C@H]1Cc2c(ccc3c2O[C@@H]2COc4cc(OC)c(OC)cc4[C@@H]2C3=O)O1 [ROTENONE],28.8 nM,7.2,5.1 nM,1
CCCCCCCCCCCC[C@H](O)[C@@H]1CC[C@@H]([C@@H](O)CCCCC(=O)CCCCC[C@@H]2CC(CC(C)=O)C(=O)O2)O1 (some centres not stated),1.1 nM,1,0.7 nM,0.13
CCCCCCCCCCCC[C@H](O)[C@@H]1CC[C@@H]([C@@H](O)CCCC[C@@H](O)CCCCC[C@@H](O)CC2=C[C@H](C)OC2=O)O1,26.1 nM,3.2,2.3 nM,0.62
CCCCCCCCCCCC[C@H](O)[C@@H]1CC[C@@H]([C@@H](O)CCCC[C@@H](O)CCCCC[C@@H]2CC(C/C(C)=N/O)C(=O)O2)O1 (some centres not stated),8.7 nM,2.7,1.9 nM,0.37
CCCCCCCCCCCC[C@H](O)[C@@H]1CC[C@@H]([C@@H](O)CCCC[C@@H](O)CCCCC[C@@H]2CC(CC(C)=O)C(=O)O2)O1 (some centres not stated),14.6 nM,4.7,3.3 nM,0.64
CCCCCCCCCCCC[C@H](O)[C@@H]1CC[C@@H]([C@@H](O)CCCC[C@@H](O)CCCCC[C@@H]2CC(CC(C)O)C(=O)O2)O1 (some centres not stated),51 nM,8.2,5.8 nM,1.1
